Results on one compound are retold here after ChEMBL document CHEMBL5550204, “Discovery of ZJCK-6-46: A Potent, Selective, and Orally Available Dual-Specificity Tyrosine Phosphorylation-Regulated Kinase 1A Inhibitor for the Treatment of Alzheimer's Disease” (J Med Chem, 2024).

Series [1] can be described thus: AUC (0 to t) in Sprague-Dawley rat at 2 mg/kg,iv measured upto 24 hrs by LC-MS/MS analysis. Format: ADME, organism-based. The note with it: in vivo.
Series [2] is described as follows: Drug concentration in Sprague-Dawley rat brain at 10 mg/kg,po measured after 4 hrs by LC-MS/MS analysis. It is filed as ADME, organism-based. The note with it: read-out: Ct.
The nature of series [3]: Toxicity in okadaic acid-induced cognitive impairment C57BL/6 mouse assessed as change in serum AST level at 10 to 30 mg/kg,po once daily for 2 weeks. It is filed as organism-based. The note with it: in vivo, 336 h, dose 10-30 mg/kg.
Series [4] is described as follows: Metabolic stability in human liver microsomes assessed as half life at 1 uM incubated upto 45 mins in presence of NADPH by LC-MS/MS analysis. Format: ADME, Microsome.
Series [5] in a line: Toxicity in okadaic acid-induced cognitive impairment C57BL/6 mouse assessed as change in body weight at 10 to 30 mg/kg,po once daily for 2 weeks. Format: organism-based. The note with it: in vivo, 336 h, dose 10-30 mg/kg.
Series [6] can be described thus: Toxicity in okadaic acid-induced cognitive impairment C57BL/6 mouse assessed as change in serum GSH level at 10 to 30 mg/kg,po once daily for 2 weeks. Format: organism-based. The note with it: in vivo, 336 h, dose 10-30 mg/kg.
The nature of series [7]: Apparent volume of distribution in Sprague-Dawley rat at 2 mg/kg,iv measured upto 24 hrs by LC-MS/MS analysis. Format: ADME, organism-based. The note with it: in vivo, read-out: Vz.
Series [8] has as its target Dual specificity protein kinase CLK1 (Homo sapiens, UniProt P49759). Put plainly: Inhibition of CLK1 (unknown origin) preincubated with enzyme for 10 mins followed by substrate and ATP addition measured after 60 mins by ADP-Glo reagent based assay.
In series [9] the target is Dual specificity tyrosine-phosphorylation-regulated kinase 3 (Homo sapiens, UniProt O43781). Put plainly: Inhibition of DYRK3 (unknown origin) preincubated with enzyme for 10 mins followed by substrate and ATP addition measured after 60 mins by ADP-Glo reagent based assay. (ADP-Glo turns the ADP formed in a reaction into a luminescent signal.)
Sequence of Dual specificity tyrosine-phosphorylation-regulated kinase 3 (O43781 whole entry): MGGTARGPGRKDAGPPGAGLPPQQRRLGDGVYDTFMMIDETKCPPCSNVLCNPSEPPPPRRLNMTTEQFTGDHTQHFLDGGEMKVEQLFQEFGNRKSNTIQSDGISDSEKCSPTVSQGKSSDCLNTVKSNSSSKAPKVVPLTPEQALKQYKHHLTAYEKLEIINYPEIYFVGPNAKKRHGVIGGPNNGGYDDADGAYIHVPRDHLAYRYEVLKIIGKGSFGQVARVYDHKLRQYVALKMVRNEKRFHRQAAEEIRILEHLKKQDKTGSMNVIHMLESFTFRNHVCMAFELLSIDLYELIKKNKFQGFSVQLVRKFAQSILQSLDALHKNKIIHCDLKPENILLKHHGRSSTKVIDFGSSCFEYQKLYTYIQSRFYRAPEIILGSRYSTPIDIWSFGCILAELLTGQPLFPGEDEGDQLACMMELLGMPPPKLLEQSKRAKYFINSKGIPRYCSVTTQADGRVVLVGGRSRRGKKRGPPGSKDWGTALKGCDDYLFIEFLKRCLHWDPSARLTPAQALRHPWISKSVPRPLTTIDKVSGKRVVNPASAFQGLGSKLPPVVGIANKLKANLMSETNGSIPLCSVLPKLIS
The nature of series [10]: Toxicity in okadaic acid-induced cognitive impairment C57BL/6 mouse assessed as change in serum CRE level at 10 to 30 mg/kg,po once daily for 2 weeks. Format: organism-based. The conditions noted are these: in vivo, 336 h, dose 10-30 mg/kg.
The nature of series [11]: Acute toxicity in C57BL/6 mouse assessed as animal death at 500 mg/kg,po observed after 14 days. It is filed as organism-based. The note with it: in vivo, 336 h, time 14 day.
Series [12] concerns the target Dual specificity protein kinase CLK3 (Homo sapiens, UniProt P49761). Put plainly: Inhibition of CLK3 (unknown origin) at 1 uM preincubated with enzyme for 10 mins followed by substrate and ATP addition measured after 60 mins by ADP-Glo reagent based assay relative to control. The conditions noted are these: time 70.0 min.
A short description of series [13]: Acute toxicity in C57BL/6 mouse assessed as histopathological change in heart at 500 mg/kg,po observed after 14 days by hematoxylin-eosin staining based analysis. Format: organism-based. The note with it: in vivo, 336 h, time 14 day.
A short description of series [14]: Drug concentration in Sprague-Dawley rat brain at 10 mg/kg,po measured after 2 hrs by LC-MS/MS analysis. It is filed as ADME, organism-based. The note with it: read-out: Ct.
The test system of series [15] is Mus musculus. Briefly: Antialzheimer activity in okadaic acid-induced cognitive impairment C57BL/6 mouse assessed as reduction in nerve damage in hippocampal DG region at 10 to 30 mg/kg,po once daily for 2 weeks by Nissl staining based microscopy. Format: functional, organism-based. The conditions noted are these: dose 10-30 mg/kg.
The test system of series [16] is Mus musculus. Briefly: Antialzheimer activity in okadaic acid-induced cognitive impairment C57BL/6 mouse assessed as change in swimming speed at 10 to 30 mg/kg,po once daily for 2 weeks by Morris water maze test. It is filed as functional, organism-based. The conditions noted are these: dose 10-30 mg/kg.
Series [17] can be described thus: Clearance in Sprague-Dawley rat at 2 mg/kg,iv measured upto 24 hrs by LC-MS/MS analysis. Format: ADME, organism-based. The conditions noted are these: in vivo.
For series [18], the target named is Dual specificity tyrosine-phosphorylation-regulated kinase 3 (Homo sapiens) (UniProt O43781). Put plainly: Inhibition of DYRK3 (unknown origin) at 1 uM preincubated with enzyme for 10 mins followed by substrate and ATP addition measured after 60 mins by ADP-Glo reagent based assay relative to control. The note with it: time 70.0 min.
Sequence of Dual specificity tyrosine-phosphorylation-regulated kinase 3 (Homo sapiens) (O43781 whole entry): as above
Series [19] concerns Mus musculus. Briefly: Antialzheimer activity in okadaic acid-induced cognitive impairment C57BL/6 mouse assessed as increase in number of platform crossing at 10 to 30 mg/kg,po measured after 7 days by Morris water maze test. It is filed as functional, organism-based. The note with it: dose 10-30 mg/kg, time 7.0 day.
Series [20] can be described thus: AUC (0 to t) in Sprague-Dawley rat at 10 mg/kg,po measured upto 24 hrs by LC-MS/MS analysis. It is filed as ADME, organism-based. The conditions noted are these: in vivo.
The next series concerns the target CYP3A4 (Homo sapiens, UniProt P08684). Briefly: Inhibition of CYP3A4 in human liver microsomes using midazolam as substrate at 10 uM preincubated for 10 mins followed by NADPH addition and measured after 40 mins by LC-MS/MS analysis relative to control. Format: ADME, Microsome. The note with it: probe midazolam, time 50 min. For orientation: Microsomes from liver hold many membrane-bound enzymes, among them those of drug oxidation.

The target in series [21] is Dual specificity protein kinase CLK4 (Homo sapiens, UniProt Q9HAZ1). Briefly: Inhibition of CLK4 (unknown origin) at 1 uM preincubated with enzyme for 10 mins followed by substrate and ATP addition measured after 60 mins by ADP-Glo reagent based assay relative to control. The note with it: time 70.0 min.
Sequence of Dual specificity protein kinase CLK4 (Q9HAZ1 whole entry, looked up): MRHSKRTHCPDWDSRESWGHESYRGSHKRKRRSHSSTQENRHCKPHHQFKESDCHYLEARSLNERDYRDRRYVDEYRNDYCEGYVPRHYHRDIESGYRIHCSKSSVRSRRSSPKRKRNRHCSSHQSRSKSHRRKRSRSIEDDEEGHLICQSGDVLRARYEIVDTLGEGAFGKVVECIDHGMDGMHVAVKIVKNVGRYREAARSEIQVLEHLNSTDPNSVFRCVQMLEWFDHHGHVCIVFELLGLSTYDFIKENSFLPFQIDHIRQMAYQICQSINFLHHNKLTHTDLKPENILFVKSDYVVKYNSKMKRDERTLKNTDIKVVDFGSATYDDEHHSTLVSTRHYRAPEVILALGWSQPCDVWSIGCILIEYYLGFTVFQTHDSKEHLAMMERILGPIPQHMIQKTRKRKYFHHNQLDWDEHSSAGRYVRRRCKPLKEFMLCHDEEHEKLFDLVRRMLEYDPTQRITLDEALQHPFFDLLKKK
Series [22] relates to Mus musculus. Put plainly: Antialzheimer activity in okadaic acid-induced cognitive impairment C57BL/6 mouse assessed as decrease in learning deficit at 10 to 30 mg/kg,po once daily for 2 weeks by Morris water maze test. Format: functional, organism-based. The note with it: dose 10-30 mg/kg.
Series [23] can be described thus: Acute toxicity in C57BL/6 mouse assessed as change in body weight at 500 mg/kg,po observed after 14 days. Format: organism-based. The conditions noted are these: in vivo, 336 h, time 14 day.

Active and inactive are the calls of the source. The calls are words filed in the database; no cut-off is given here.

Sequence of CYP3A4 (P08684 whole entry): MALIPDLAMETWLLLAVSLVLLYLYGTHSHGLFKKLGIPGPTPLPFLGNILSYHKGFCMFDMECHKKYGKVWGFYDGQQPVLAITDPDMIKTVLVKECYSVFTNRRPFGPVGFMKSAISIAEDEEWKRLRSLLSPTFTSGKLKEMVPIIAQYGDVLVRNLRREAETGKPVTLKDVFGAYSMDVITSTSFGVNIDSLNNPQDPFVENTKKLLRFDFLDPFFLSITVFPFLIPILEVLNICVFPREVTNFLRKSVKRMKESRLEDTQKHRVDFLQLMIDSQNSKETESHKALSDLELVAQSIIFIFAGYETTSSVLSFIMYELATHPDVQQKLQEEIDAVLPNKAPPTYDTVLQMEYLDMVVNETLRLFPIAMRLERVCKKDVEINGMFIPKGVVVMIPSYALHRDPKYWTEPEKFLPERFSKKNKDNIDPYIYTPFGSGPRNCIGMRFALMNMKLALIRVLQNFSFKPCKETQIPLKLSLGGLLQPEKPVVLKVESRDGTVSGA
Sequence of Dual specificity protein kinase CLK3 (P49761 whole entry, looked up): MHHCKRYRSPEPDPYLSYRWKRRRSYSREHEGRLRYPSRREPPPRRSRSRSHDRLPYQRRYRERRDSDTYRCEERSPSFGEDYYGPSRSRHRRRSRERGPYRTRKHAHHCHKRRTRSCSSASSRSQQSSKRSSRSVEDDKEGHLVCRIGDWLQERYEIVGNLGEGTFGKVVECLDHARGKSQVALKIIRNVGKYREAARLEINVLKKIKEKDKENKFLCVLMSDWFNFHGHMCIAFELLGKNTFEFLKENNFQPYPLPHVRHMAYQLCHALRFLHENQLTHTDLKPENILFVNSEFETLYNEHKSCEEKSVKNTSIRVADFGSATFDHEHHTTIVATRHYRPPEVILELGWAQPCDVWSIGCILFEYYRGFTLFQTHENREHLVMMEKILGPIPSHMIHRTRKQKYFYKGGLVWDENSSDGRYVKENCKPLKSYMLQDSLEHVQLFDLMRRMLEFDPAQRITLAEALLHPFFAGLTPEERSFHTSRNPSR
Sequence of Dual specificity protein kinase CLK1 (P49759 whole entry): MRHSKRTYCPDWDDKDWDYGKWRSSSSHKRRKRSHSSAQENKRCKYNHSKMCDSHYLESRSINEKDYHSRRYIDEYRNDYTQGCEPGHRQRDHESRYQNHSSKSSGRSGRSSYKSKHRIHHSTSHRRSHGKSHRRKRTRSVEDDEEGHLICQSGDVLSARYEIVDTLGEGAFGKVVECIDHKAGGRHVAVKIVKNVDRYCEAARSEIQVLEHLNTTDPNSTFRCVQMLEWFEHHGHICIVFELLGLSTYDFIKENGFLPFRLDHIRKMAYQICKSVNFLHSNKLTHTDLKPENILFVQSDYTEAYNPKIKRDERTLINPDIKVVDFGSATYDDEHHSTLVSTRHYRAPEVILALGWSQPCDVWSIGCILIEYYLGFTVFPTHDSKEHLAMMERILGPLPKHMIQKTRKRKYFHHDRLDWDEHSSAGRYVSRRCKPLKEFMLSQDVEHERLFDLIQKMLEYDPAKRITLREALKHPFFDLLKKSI

With `Cc1ccc2c(-c3ccc4ncnc(N[C@H](CO)c5ccccc5)c4c3)c[nH]c2n1`, the area under the curve AUC(0-t) at 24 h in series [1] came to 1500 ng·h/mL; in series [20], 2990 ng·h/mL. Further, the concentration at 4 h in [2] stood at 39.1 ng/g. Further, the Activity result in series [3], in [5], in [6], in series [10], in [11] and in [13] was “Non-Toxic” throughout. Moreover, the Activity result in series [23] was “Non-Toxic”. In addition, the half-life at […], 1 µM in [4] worked out at 1.53 h. Moreover, the Vd in series [7] was 5.82 L/kg. Besides, the IC50 in series [8] was found to be 1.68 nM; in series [9], 17.5 nM. Also, the inhibition in [12] amounted to 113%; in series [18], 98.1%; in series [21], 100%. Moreover, the concentration at 2 h in series [14] is 16.8 ng/g. Further, the outcome with Mus musculus [15], with Mus musculus [19] and in the series with Mus musculus [22] was Active. Besides, the result in the series on Mus musculus [16] was inactive. In [17], this compound gave a clearance of 23.7 mL/min/kg. Besides, the inhibition at 40 min, 10 µM against CYP3A4 came to 33.1%.

The term AUC(0-t) denotes exposure summed from dosing to a finite time, without extrapolation to infinity. For orientation: half-life means the time in which the quantity being followed falls by half. One may read the IC50 as the midpoint of a concentration-inhibition curve. The low end stands for inhibition by little substance, the high end for a need for much substance. A word on the inhibition: it is the change of the read-out against control, counted positive when it falls. One may read the clearance as the volume of plasma or blood freed of the substance per unit of time. High values mean a high capacity for elimination, low ones a low capacity for elimination.
